Results: PubChem BioAssay (NCI)
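In this assay, cells in 96-well plates receive the compound at five concentrations for 48 hours. Endpoints are linearly interpolated between the surrounding concentrations. TGI: total growth inhibition.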

What was measured:
Assay in all cases: NCI tumour cell line growth inhibition, 48 h
HOP-18 NSCLC = test system: HOP-18 NSCLC
KM20L2 colon = test system: KM20L2 colon
DMS 114 small cell lung = test system: DMS 114 small cell lung
DMS 273 small cell lung = test system: DMS 273 small cell lung
XF 498 CNS = test system: XF 498 CNS
LXFL 529 NSCLC = test system: LXFL 529 NSCLC
M19-MEL melanoma = test system: M19-MEL melanoma
SN12K1 renal = test system: SN12K1 renal
P388 leukemia = test system: P388 leukemia
P388/ADR leukemia = test system: P388/ADR leukemia

Row | Structure (SMILES) | TGI (HOP-18 NSCLC) [µM] | TGI (KM20L2 colon) [µM] | TGI (DMS 114 small cell lung) [µM] | TGI (DMS 273 small cell lung) [µM] | TGI (XF 498 CNS) [µM] | TGI (LXFL 529 NSCLC) [µM] | TGI (M19-MEL melanoma) [µM] | TGI (SN12K1 renal) [µM] | TGI (P388 leukemia) [µM] | TGI (P388/ADR leukemia) [µM]
1 | CC12CCC3=C(CSC4=C3CSc3ccccc34)C1=CCCC2=O (stereo not drawn) | > 100 | > 100 | > 100 | > 100 | 87.3 | > 100 | > 100 |  |  | 
2 | c1ccc(C[P+]2(c3ccccc3)CCCCC2)cc1 | > 100 | > 100 | > 100 | > 100 | 98.2 | > 100 | > 100 |  |  | 
3 | O=C1CCCn2c3ccccc3c3ccnc1c32 | > 100 | > 100 | > 100 | > 100 | 74.5 |  | > 100 | > 100 | > 93.9 | > 100
4 | CSCC[C@@H](NC(=O)[C@H](CC(C)C)NC(=O)C(Cc1cnc[nH]1)NC(=O)CNC(=O)[C@@H](NC(=O)[C@H](C)NC(=O)[C@H](Cc1cn(C=O)c2ccccc12)NC(=O)[C@H](CCC(N)=O)NC(=O)[C@@H](N)CC(N)=O)C(C)C)C(N)=O (stereo partly drawn) | > 100 | > 100 | > 100 | > 100 | > 100 |  | > 100 | > 100 | > 100 | > 100
5 | CC1(C)OC2C(CO)OC(/N=C(\NC#N)Oc3ccccc3)C2O1 (stereo not drawn) |  | > 100 | > 100 | > 100 | > 100 | > 100 | > 100 |  |  | 
